Earlier results on one compound are cited in patent US20140100274A1, “METHODS OF ADMINISTERING COMPOSITIONS COMPRISING DOCOSAPENTAENOIC ACID” (Matinas BioPharma, Inc., priority 2012, published 2014).

For the series the following is noted: in vivo.

Structures are written as SMILES.

With `CC[C@H](C)C(=O)O[C@H]1C[C@H](O)C=C2C=C[C@H](C)[C@H](CC[C@@H](O)C[C@@H](O)CC(=O)O)[C@H]21` [pravastatin], the First-pass metabolism result was “occurs in all statins except pravastatin”.
